Among the data in patent publication US20180105492A1, “COMPOUNDS DERIVED FROM 3-ALKYLAMINE-1H-INDOLYL ACRYLATE AND THEIR USE IN THE TREATMENT OF NEURODEGENERATIVE DISEASES” (FUNDACION PARA LA INVESTIGACION BIOMEDICA DEL HOSPITAL …, priority 2014, published 2018) are fold induction values, retold here.

Structures are written as SMILES.

Test [1] has as its system Nrf2 transcription factor (Nrf2-ARE). Nature of the test: Nrf2-ARE induction, luciferase activity in AREc32 (MCF7 cells stably transfected with ARE-LUC). The note with it: Homo sapiens, 24 h, basal = 1, read-out: Relative Luciferase activity (response versus basal). The format is cell-based. As to the method: For the study of Nrf2 transcription factor, the cellular line AREC32 was used, which is characterized for being stably transfected with the reporter gene of Luciferase linked to the ARE sequence. In the presence electrophilic compounds or oxidative stress, Nrf2 factor binds to ARE sequences, activating luciferase expression and producing a proportional quantity of luciferase. The AREc32 cells were cultured in DMEM media with glutamax, supplemented with 10% fetal bovine serum (FBS), 1% penicillin-streptomycin and 1.6% geneticine (G418) (obtained from GIBCO, Madrid, Spain). Cells were cultured in 75 cm flasks with 11 mL of specific media, incubated at 37° C. and 5% of CO2. Cells were passed every 4-6 days (1:4), whenever the confluence reached 80%. For the experiments, cells were cultured in transparent surface 96 well plates at a density of […] with 100 μL/well. After 24 h in culture, cells were treated with the compounds at different concentrations (1, 10, 30 and 60 μM) during 24 h at 37° C. and 5% CO2. In every experiment it was also included a basal variable, a variable with 10 μM tert-butyl hydroquinone (TBHQ) (positive control) and the variables of the study in a final volume of 100 μL. After an incubation of 24 h with the compounds, luciferase activity was measured by bioluminescence using the commercial kit “Luciferase assay system” (Promega E1500). For that, treatments were removed and cells were washed with 100 μL of PBS 0.1 M. After washing, 20 μL of “lysis buffer” reactive was added to each well. 10 minutes later, luminescence was measured using the multi-well reader FluoStar optima (BMG labtech).
Luminescence was measured in arbitrary units and is directly proportional to luciferase quantity in the wells, which is also directly proportional to Nrf2 transcription factor induction by the specific compound at the established concentration. Measurements were made in duplicate and values were normalized to the basal luminescence value, considered as 1.
The results of Nrf2 induction obtained for the compounds 1 to 16 are shown in Table 1 and are expressed as induction, considering 1 the non-treated cells.

The test system is the same in test [2]. The test is described as above. The note with it: Homo sapiens, 24 h, basal = 1, read-out: Relative Luciferase activity (response versus basal). It counts as cell-based. This is another data set of the same source.

Take `CCOC(=O)C=Cc1ccccc1` [Ethyl Cinnamate, reference compound]: the fold induction at 10 µM in test [1] (10 μM) turned out to be 1.46 ± 0.1. Also, in test [1] (30 μM), the fold induction at 30 µM amounted to 1.4 ± 0.1. Further, the fold induction at 60 µM in test [1] (60 μM) worked out at 1.55 ± 0.1.

Consider `CC(C)(C)c1cc(O)ccc1O` [TBHQ, tert-butyl hydroquinone], for which the fold induction at 3 µM in test [2] (3 μM) came to 3.83 ± 0.3. In test [2] (6 μM), the fold induction at 6 µM is 6.1 ± 0.1. The fold induction at 1 µM in test [1] (1 μM) amounted to 2.19 ± 0.1.
